Source: PubChem BioAssay (NCI)
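Assay format: 96-well plates, 48-hour exposure. TGI: concentration producing complete growth inhibition.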

Assays:
Assay in all cases: NCI-60 cell line screen, 48 h
A549 NSCLC = system: A549 NSCLC
ACHN renal = system: ACHN renal
CAKI-1 renal = system: CAKI-1 renal
CCRF-CEM leukemia = system: CCRF-CEM leukemia
COLO 205 colon = system: COLO 205 colon
DLD-1 colon = system: DLD-1 colon
DMS 273 small cell lung = system: DMS 273 small cell lung
EKVX NSCLC = system: EKVX NSCLC
HCC-2998 colon = system: HCC-2998 colon
HCT-116 colon = system: HCT-116 colon
HCT-15 colon = system: HCT-15 colon
HOP-18 NSCLC = system: HOP-18 NSCLC
HOP-62 NSCLC = system: HOP-62 NSCLC
HOP-92 NSCLC = system: HOP-92 NSCLC
IGROV1 ovarian = system: IGROV1 ovarian
K-562 leukemia = system: K-562 leukemia
KM12 colon = system: KM12 colon
KM20L2 colon = system: KM20L2 colon
LOX IMVI melanoma = system: LOX IMVI melanoma
LXFL 529 NSCLC = system: LXFL 529 NSCLC
M14 melanoma = system: M14 melanoma
M19-MEL melanoma = system: M19-MEL melanoma
MALME-3M melanoma = system: MALME-3M melanoma
MOLT-4 leukemia = system: MOLT-4 leukemia
NCI-H226 lung = system: NCI-H226 lung
NCI-H23 lung = system: NCI-H23 lung
NCI-H522 lung = system: NCI-H522 lung
OVCAR-3 ovarian = system: OVCAR-3 ovarian
OVCAR-4 ovarian = system: OVCAR-4 ovarian
OVCAR-5 ovarian = system: OVCAR-5 ovarian
OVCAR-8 ovarian = system: OVCAR-8 ovarian
RPMI-8226 leukemia = system: RPMI-8226 leukemia
RXF 393 renal = system: RXF 393 renal
RXF-631 renal = system: RXF-631 renal
SF-268 CNS = system: SF-268 CNS
SF-295 CNS = system: SF-295 CNS
SF-539 CNS = system: SF-539 CNS
SK-MEL-2 melanoma = system: SK-MEL-2 melanoma
SK-MEL-28 melanoma = system: SK-MEL-28 melanoma
SK-MEL-5 melanoma = system: SK-MEL-5 melanoma
SK-OV-3 ovarian = system: SK-OV-3 ovarian
SN12C renal = system: SN12C renal
SNB-19 CNS = system: SNB-19 CNS
SNB-78 CNS = system: SNB-78 CNS
SR leukemia = system: SR leukemia
SW-620 colon = system: SW-620 colon
TK-10 renal = system: TK-10 renal
U251 CNS = system: U251 CNS
UACC-62 melanoma = system: UACC-62 melanoma
UO-31 renal = system: UO-31 renal
XF 498 CNS = system: XF 498 CNS
A498 renal = system: A498 renal
DMS 114 small cell lung = system: DMS 114 small cell lung
HL-60(TB) leukemia = system: HL-60(TB) leukemia
HT29 colon = system: HT29 colon
NCI-H460 lung = system: NCI-H460 lung
SNB-75 CNS = system: SNB-75 CNS
UACC-257 melanoma = system: UACC-257 melanoma

`COc1ccc(NC(=O)/C(=C/c2ccc(N(CCC#N)CCC#N)cc2)NC(=O)c2cc([N+](=O)[O-])ccc2Cl)cc1` was tested, and the TGI (A549 NSCLC) was 89.7 µM, the TGI (ACHN renal) was 59.5 µM and the TGI (CAKI-1 renal) was > 100 µM. The TGI (CCRF-CEM leukemia) was > 100 µM, the TGI (COLO 205 colon) was > 100 µM and the TGI (DLD-1 colon) was > 100 µM. For the same molecule, the TGI (DMS 273 small cell lung) was > 100 µM, the TGI (EKVX NSCLC) was > 100 µM and the TGI (HCC-2998 colon) was > 100 µM. The TGI (HCT-116 colon) was > 100 µM, the TGI (HCT-15 colon) was > 100 µM and the TGI (HOP-18 NSCLC) was > 100 µM. The TGI (HOP-62 NSCLC) was > 100 µM, the TGI (HOP-92 NSCLC) was > 100 µM and the TGI (IGROV1 ovarian) was > 100 µM. For the same molecule, the TGI (K-562 leukemia) was > 100 µM, the TGI (KM12 colon) was > 100 µM and the TGI (KM20L2 colon) was > 100 µM. The TGI (LOX IMVI melanoma) was > 100 µM, the TGI (LXFL 529 NSCLC) was > 100 µM and the TGI (M14 melanoma) was > 100 µM. The TGI (M19-MEL melanoma) was > 100 µM, the TGI (MALME-3M melanoma) was > 100 µM and the TGI (MOLT-4 leukemia) was > 100 µM. The TGI (NCI-H226 lung) was > 100 µM, the TGI (NCI-H23 lung) was > 100 µM and the TGI (NCI-H522 lung) was > 100 µM. For the same molecule, the TGI (OVCAR-3 ovarian) was > 100 µM, the TGI (OVCAR-4 ovarian) was > 100 µM and the TGI (OVCAR-5 ovarian) was > 100 µM. The TGI (OVCAR-8 ovarian) was > 100 µM, the TGI (RPMI-8226 leukemia) was > 100 µM and the TGI (RXF 393 renal) was > 100 µM. For the same molecule, the TGI (RXF-631 renal) was > 100 µM, the TGI (SF-268 CNS) was > 100 µM and the TGI (SF-295 CNS) was 73.2 µM. The TGI (SF-539 CNS) was 50.8 µM, the TGI (SK-MEL-2 melanoma) was > 100 µM and the TGI (SK-MEL-28 melanoma) was > 100 µM. For the same molecule, the TGI (SK-MEL-5 melanoma) was > 100 µM, the TGI (SK-OV-3 ovarian) was > 100 µM and the TGI (SN12C renal) was > 100 µM. The TGI (SNB-19 CNS) was > 100 µM, the TGI (SNB-78 CNS) was > 100 µM and the TGI (SR leukemia) was > 100 µM. The TGI (SW-620 colon) was > 100 µM, the TGI (TK-10 renal) was > 100 µM and the TGI (U251 CNS) was > 100 µM. The TGI (UACC-62 melanoma) was > 100 µM, the TGI (UO-31 renal) was > 100 µM and the TGI (XF 498 CNS) was > 100 µM.

`CCC(C)C(=O)c1c(O)c(C/C=C(\C)CCC=C(C)C)c(O)c2c(C(O)CC)cc(=O)oc12` (stereo unspecified) was tested, and the TGI (A498 renal) was 6.15 µM, the TGI (A549 NSCLC) was 11.4 µM and the TGI (ACHN renal) was 8.38 µM. For the same molecule, the TGI (CAKI-1 renal) was 12.1 µM, the TGI (CCRF-CEM leukemia) was 3.44 µM and the TGI (COLO 205 colon) was 7.27 µM. For the same molecule, the TGI (DLD-1 colon) was 11.3 µM, the TGI (DMS 114 small cell lung) was 3.35 µM and the TGI (DMS 273 small cell lung) was 8.29 µM. The TGI (EKVX NSCLC) was 10.1 µM, the TGI (HCC-2998 colon) was 2.09 µM and the TGI (HCT-116 colon) was 2.21 µM. It also gave a TGI (HL-60(TB) leukemia) of 3.48 µM, a TGI (HOP-62 NSCLC) of 4.08 µM and a TGI (HOP-92 NSCLC) of 5.47 µM. The TGI (HT29 colon) was 3.62 µM, the TGI (IGROV1 ovarian) was 13.6 µM and the TGI (K-562 leukemia) was 3.31 µM. The TGI (KM12 colon) was 11.4 µM, the TGI (KM20L2 colon) was 2.68 µM and the TGI (LOX IMVI melanoma) was 12.6 µM. It also gave a TGI (LXFL 529 NSCLC) of 2.99 µM, a TGI (M14 melanoma) of 14.4 µM and a TGI (M19-MEL melanoma) of 6.51 µM. For the same molecule, the TGI (MALME-3M melanoma) was 5.28 µM, the TGI (MOLT-4 leukemia) was 3.94 µM and the TGI (NCI-H226 lung) was 9.11 µM. The TGI (NCI-H23 lung) was 3.89 µM, the TGI (NCI-H460 lung) was 7.23 µM and the TGI (NCI-H522 lung) was 5.73 µM. The TGI (OVCAR-3 ovarian) was 12.6 µM, the TGI (OVCAR-4 ovarian) was 10.5 µM and the TGI (OVCAR-5 ovarian) was 17.9 µM. It also gave a TGI (RPMI-8226 leukemia) of 3.51 µM, a TGI (RXF 393 renal) of 7.19 µM and a TGI (RXF-631 renal) of 14.2 µM. It also gave a TGI (SF-268 CNS) of 10.8 µM, a TGI (SF-295 CNS) of 7.82 µM and a TGI (SF-539 CNS) of 7.43 µM. For the same molecule, the TGI (SK-MEL-2 melanoma) was 3.83 µM, the TGI (SK-MEL-28 melanoma) was 5.57 µM and the TGI (SK-MEL-5 melanoma) was 2.74 µM. It also gave a TGI (SK-OV-3 ovarian) of 10.8 µM, a TGI (SN12C renal) of 8.26 µM and a TGI (SNB-19 CNS) of 16.2 µM. It also gave a TGI (SNB-75 CNS) of 5.84 µM, a TGI (SNB-78 CNS) of 16.7 µM and a TGI (SR leukemia) of 3.48 µM. For the same molecule, the TGI (SW-620 colon) was 14 µM, the TGI (TK-10 renal) was 13.1 µM and the TGI (U251 CNS) was 9.67 µM. It also gave a TGI (UACC-257 melanoma) of 6.84 µM, a TGI (UACC-62 melanoma) of 5.15 µM and a TGI (UO-31 renal) of 6.95 µM. For the same molecule, the TGI (XF 498 CNS) was 4.53 µM.
